What was measured:
[1] = test system: morphine-induced nausea and vomiting; assay: Morphine-induced nausea and vomiting in beagles; format: in vivo; conditions: male beagles; for Anti-emetic effect of test compounds: dose at which the test compounds inhibited nausea and vomiting due to morphine: test compound i.v. 15 minutes before morphine 0.5 mg/kg i.v., observed for ten minutes
Protocol: Male beagles were used for the experiment. Frequencies of nausea and vomiting were visually observed for ten minutes after the administration of morphine.
Morphine (0.5 mg/kg) was intravenously administered into the foreleg of male beagles. […] The test compounds were intravenously administered into the foreleg 15 minutes before the administration of morphine.

[2] = test system: nausea and vomiting due to morphine; conditions: literature report; cited from earlier work
[3] = test system: morphine-induced nausea and vomiting; assay: Morphine-induced nausea and vomiting in ferrets; format: in vivo; conditions: male ferrets; morphine 0.1-3 mg/kg s.c.; observed for one hour
Protocol: Male ferrets were used for the experiment. Frequencies of nausea and vomiting were visually observed from immediately after the administration of morphine to one hour after the administration.
Morphine (0.1-3 mg/kg) was subcutaneously administered to male ferrets. […] The inhibitory effects of NTI on nausea and vomiting due to morphine were then studied. NTI (5 mg/kg) was subcutaneously administered 30 minutes before the administration of morphine (0.6 mg/kg).

| Compound | Anti-emetic effect of test compounds: dose at which the test compounds inhibited nausea and vomiting due to morphine [1] | also measured |
| --- | --- | --- |
| C[S+]([O-])c1cccc2c3c([nH]c12)[C@@H]1Oc2c(O)ccc4c2C12CCN(CC1CC1)[C@H](C4)[C@]2(O)C3 (stereo partly drawn) [Compound 2, 17-(cyclopropylmethyl)-6,7-didehydro-4,5α-epoxy-3,14β-dihydroxy-7′-methylsulfinyl-6,7-2′,3′-indolomorphinan] | 1.0 mg/kg |  |
| Oc1ccc2c3c1O[C@H]1c4c(c5cc(F)cc6c5n4CCC6)C[C@@]4(O)[C@@H](C2)N(CC2CC2)CCC314 [Compound 3, 17-(cyclopropylmethyl)-6,7-didehydro-4,5α-epoxy-3,14β-dihydroxy-1′,7′-trimethylene-5′-fluoro-6,7-2′,3′-indolomorphinan] | 1.0 mg/kg |  |
| Cn1c2c(c3ccc4c(c31)CCCC4)C[C@@]1(O)[C@H]3Cc4ccc(O)c5c4C1(CCN3CC1CC1)[C@H]2O5 [Compound 4, 17-(cyclopropylmethyl)-6,7-didehydro-4,5α-epoxy-3,14β-dihydroxy-6′,7′-cyclohexeno-1′-methyl-6,7-2′,3′-indolomorphinan] | 3.0 mg/kg |  |
| Oc1ccc2c3c1O[C@H]1c4nc5ccccc5cc4C[C@@]4(O)[C@@H](C2)N(CC2CC2)CCC314 [Compound 5, 17-(cyclopropylmethyl)-6,7-didehydro-4,5α-epoxy-3,14β-dihydroxy-6,7-2′,3′-quinolinomorphinan] | 1.0 mg/kg |  |
| Cc1c2c(nc3ccccc13)[C@@H]1Oc3c(O)ccc4c3C13CCN(CC1CC1)[C@H](C4)[C@]3(O)C2 [Compound 6, 17-(cyclopropylmethyl)-6,7-didehydro-4,5α-epoxy-3,14β-dihydroxy-6,7-2′,3′-(4′-methylquinolino)morphinan] | 3.0 mg/kg |  |
| O=C1/C(=C/c2ccccc2)C[C@@]2(O)[C@H]3Cc4ccc(O)c5c4[C@@]2(CCN3CC2CC2)[C@H]1O5 [Compound 7, 7-benzylidene-17-(cyclopropylmethyl)-4,5α-epoxy-3,14β-dihydroxy-6-oxomorphinan] | 1.0 mg/kg |  |
| C=CCN(CC=C)[C@@H](Cc1ccc(O)cc1)C(=O)NCC(=O)NCCS[C@@H](Cc1ccccc1)C(=O)N[C@@H](CC(C)C)C(=O)O [ICI-154129] |  | Anti-emetic effect against nausea and vomiting due to morphine [2]: cannot inhibit vomiting due to morphine |
| CN1CC[C@]23c4c5ccc(O)c4O[C@H]2[C@@H](O)C=C[C@H]3[C@H]1C5 [Morphine, morphine, reference compound] |  | Induction of nausea and vomiting ([1]; morphine 0.5 mg/kg i.v.): remarkably induced within 5 minutes; Induction of nausea and vomiting [3]: remarkably induced at lower doses |
| C=CCN1CC[C@]23c4c5ccc(O)c4O[C@H]2C(=O)CC[C@@]3(O)[C@H]1C5 [naloxone] |  | Anti-emetic effect against nausea and vomiting due to morphine [2]: shows anti-emetic effects |

From patent publication US20060052409A1, “Therapeutic or preventive agent for nausea/vomiting” (priority 2002, published 2006)
